Structures are written as SMILES. The source made the active and inactive calls. No cut-off for these calls is given here.

These results are taken from ChEMBL document CHEMBL4616677, “Preclinical Lead Optimization of a 1,2,4-Triazole Based Tankyrase Inhibitor” (J Med Chem, 2020).

A short description of data set [1]: Clearance in ICR mouse at 5 mg/kg, po by LC-MS/MS analysis. The data set is classed as ADME, organism-based. As to conditions: in vivo.
Data set [2] can be described thus: Apparent permeability across apical to basolateral side in human Caco2 cells at 10 uM measured after 2 hrs by lucifer yellow based LC-MS/MS analysis. The following applies: Caco-2. The data set is classed as ADME, cell-based. (In general: Caco-2 monolayers are a common model of the intestinal barrier.)
Data set [3] concerns the target T1, Protein mono-ADP-ribosyltransferase PARP3 (Homo sapiens, UniProt Q9Y6F1).
T1 sequence (Q9Y6F1 whole entry): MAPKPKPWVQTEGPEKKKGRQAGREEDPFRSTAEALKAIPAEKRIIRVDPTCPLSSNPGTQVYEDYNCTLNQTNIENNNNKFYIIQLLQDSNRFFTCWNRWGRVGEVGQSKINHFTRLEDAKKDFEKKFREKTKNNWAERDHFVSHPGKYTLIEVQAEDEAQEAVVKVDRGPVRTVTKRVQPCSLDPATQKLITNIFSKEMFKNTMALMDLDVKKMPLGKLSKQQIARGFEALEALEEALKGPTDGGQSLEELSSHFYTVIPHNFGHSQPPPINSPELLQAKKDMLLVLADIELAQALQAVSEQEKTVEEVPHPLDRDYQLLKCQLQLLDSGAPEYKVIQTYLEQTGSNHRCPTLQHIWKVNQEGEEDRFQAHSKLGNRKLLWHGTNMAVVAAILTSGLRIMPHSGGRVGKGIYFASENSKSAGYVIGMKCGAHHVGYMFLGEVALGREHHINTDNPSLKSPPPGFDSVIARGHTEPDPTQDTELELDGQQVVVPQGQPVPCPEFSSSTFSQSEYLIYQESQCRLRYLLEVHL
The data set can be described thus: Inhibition of ARTD3 (unknown origin) measured after 4 hrs in presence of NAD+ by fluorescence assay.

A short description of data set [4]: Genotoxicity in Salmonella typhimurium TA98 in presence or absence of rat S9 fraction by mini-Ames test. The data set is classed as toxicity. As to conditions: salmonella enterica subsp. enterica serovar typhimurium. (In general: The Ames test detects mutagens through reverse mutation in bacteria.)
A short description of data set [5]: Genotoxicity in Salmonella typhimurium TA100 in presence or absence of rat S9 fraction by mini-Ames test. The data set is classed as toxicity. As to conditions: salmonella enterica subsp. enterica serovar typhimurium.
Another data set has as its system RKO. In words: Antiproliferative activity against APC wild-type human RKO cells at 10 uM measured after 5 days by MTS assay. The data set is classed as functional, cell-based. In general terms: Formazan colour is commonly taken as a measure of viable cells.
For data set [6], the target named is Poly [ADP-ribose] polymerase 1 (Homo sapiens, UniProt P09874). The data set can be described thus: Inhibition of ARTD1 (unknown origin) measured after 30 mins in presence of NAD+ by fluorescence assay.
The target in data set [7] is Poly [ADP-ribose] polymerase 2 (Homo sapiens, UniProt Q9UGN5). The data set can be described thus: Inhibition of ARTD2 (unknown origin) measured after 30 mins in presence of NAD+ by fluorescence assay.
Data set [8] addresses Protein mono-ADP-ribosyltransferase PARP4 (Homo sapiens, UniProt Q9UKK3).

Poly [ADP-ribose] polymerase 2, sequence (Q9UGN5 whole entry): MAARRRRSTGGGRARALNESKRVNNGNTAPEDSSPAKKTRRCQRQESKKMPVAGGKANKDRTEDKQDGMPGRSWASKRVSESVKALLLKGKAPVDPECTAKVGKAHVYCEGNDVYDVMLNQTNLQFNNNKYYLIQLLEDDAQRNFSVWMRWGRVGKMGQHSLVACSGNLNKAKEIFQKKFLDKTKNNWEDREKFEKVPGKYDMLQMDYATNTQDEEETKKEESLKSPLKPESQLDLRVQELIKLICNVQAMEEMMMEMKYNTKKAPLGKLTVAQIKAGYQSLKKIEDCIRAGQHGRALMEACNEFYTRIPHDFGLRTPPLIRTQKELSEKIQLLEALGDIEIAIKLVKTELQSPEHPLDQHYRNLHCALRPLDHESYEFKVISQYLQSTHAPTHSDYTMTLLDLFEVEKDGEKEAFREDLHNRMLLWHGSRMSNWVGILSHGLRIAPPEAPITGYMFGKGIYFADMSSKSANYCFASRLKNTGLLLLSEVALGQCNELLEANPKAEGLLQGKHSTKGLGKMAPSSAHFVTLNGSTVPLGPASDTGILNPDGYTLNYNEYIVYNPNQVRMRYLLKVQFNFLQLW
Protein mono-ADP-ribosyltransferase PARP4, sequence (Q9UKK3 whole entry): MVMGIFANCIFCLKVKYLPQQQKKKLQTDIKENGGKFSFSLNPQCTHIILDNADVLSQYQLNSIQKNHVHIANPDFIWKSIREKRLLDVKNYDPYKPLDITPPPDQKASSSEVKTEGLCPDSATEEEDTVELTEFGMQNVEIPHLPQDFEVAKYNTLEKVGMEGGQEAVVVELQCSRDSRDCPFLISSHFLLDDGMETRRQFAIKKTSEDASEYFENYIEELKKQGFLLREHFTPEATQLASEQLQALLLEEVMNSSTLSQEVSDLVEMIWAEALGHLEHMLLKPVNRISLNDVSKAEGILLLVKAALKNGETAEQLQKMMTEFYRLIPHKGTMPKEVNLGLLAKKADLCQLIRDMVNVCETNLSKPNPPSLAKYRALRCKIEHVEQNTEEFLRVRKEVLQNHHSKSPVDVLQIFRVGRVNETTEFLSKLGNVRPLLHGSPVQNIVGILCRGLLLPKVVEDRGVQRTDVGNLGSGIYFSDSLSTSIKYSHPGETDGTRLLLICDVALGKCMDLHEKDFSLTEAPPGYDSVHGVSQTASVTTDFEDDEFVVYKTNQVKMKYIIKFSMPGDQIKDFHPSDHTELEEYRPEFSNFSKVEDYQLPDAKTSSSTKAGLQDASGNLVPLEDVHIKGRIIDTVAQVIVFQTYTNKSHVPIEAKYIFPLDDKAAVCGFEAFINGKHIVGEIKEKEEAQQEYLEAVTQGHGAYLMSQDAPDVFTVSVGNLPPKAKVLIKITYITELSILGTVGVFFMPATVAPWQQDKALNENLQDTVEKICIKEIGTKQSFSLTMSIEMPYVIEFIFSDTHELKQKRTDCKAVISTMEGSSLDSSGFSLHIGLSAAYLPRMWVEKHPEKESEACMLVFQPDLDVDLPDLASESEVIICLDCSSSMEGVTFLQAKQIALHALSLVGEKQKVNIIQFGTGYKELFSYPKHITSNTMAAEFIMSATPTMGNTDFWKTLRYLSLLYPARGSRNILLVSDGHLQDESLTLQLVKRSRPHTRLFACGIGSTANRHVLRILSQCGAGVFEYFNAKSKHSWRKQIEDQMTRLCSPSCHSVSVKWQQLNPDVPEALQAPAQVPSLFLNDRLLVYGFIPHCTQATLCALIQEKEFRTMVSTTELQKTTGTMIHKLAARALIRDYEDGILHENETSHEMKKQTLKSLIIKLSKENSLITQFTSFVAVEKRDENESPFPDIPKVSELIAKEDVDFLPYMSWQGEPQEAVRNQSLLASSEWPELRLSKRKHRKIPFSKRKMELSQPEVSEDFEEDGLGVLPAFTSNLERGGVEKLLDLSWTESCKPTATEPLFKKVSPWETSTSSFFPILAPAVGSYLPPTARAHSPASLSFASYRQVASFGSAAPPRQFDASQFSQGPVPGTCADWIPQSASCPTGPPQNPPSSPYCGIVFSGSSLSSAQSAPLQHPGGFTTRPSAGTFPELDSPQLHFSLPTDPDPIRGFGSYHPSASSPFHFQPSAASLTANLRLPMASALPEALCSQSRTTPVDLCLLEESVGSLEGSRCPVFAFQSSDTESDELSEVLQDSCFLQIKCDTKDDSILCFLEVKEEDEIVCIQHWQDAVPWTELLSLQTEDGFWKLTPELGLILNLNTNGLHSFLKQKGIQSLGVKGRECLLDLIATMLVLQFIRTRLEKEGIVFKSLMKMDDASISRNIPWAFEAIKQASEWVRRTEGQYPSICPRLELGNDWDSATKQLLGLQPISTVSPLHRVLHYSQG
Poly [ADP-ribose] polymerase 1, sequence (P09874 whole entry): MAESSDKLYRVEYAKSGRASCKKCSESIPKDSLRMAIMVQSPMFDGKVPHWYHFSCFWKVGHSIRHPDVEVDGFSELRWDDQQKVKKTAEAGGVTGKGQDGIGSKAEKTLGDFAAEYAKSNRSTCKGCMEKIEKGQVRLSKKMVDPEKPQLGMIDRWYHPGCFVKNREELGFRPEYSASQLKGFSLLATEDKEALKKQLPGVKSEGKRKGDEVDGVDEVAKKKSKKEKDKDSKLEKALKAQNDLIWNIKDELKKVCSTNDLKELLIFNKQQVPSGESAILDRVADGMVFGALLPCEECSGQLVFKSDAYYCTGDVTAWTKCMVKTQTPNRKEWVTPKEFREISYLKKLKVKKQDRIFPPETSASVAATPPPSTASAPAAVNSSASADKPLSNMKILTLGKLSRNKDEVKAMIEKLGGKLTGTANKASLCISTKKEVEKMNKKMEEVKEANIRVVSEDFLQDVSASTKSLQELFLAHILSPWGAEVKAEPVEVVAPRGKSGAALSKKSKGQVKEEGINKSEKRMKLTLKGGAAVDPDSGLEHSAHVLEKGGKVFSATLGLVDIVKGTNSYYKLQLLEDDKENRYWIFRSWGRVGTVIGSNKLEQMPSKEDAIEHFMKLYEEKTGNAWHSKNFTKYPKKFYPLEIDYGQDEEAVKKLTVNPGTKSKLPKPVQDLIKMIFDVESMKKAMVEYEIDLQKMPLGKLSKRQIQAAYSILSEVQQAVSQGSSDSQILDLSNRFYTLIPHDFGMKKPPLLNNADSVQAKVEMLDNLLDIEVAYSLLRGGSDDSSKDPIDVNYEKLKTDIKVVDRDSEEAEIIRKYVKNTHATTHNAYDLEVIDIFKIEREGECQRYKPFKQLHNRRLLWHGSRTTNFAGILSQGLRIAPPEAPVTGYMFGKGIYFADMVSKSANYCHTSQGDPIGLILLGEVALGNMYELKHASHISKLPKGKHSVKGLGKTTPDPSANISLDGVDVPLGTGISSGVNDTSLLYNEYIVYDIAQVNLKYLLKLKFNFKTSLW

As usually defined, the CL/F is clearance divided by bioavailability, as obtained after extravascular dosing. In the case of `CS(=O)(=O)c1ccc(-c2nnc([C@H]3C[C@H](NC(=O)c4cccc5cccnc45)C3)n2-c2ccccc2F)nc1`, the CL/F in [1] was 28.2 mL/min/kg.
By Papp A→B is commonly meant the apparent permeability from the apical to the basolateral side of a cell layer. The IC50 is the point on the concentration scale where inhibition reaches its midpoint. Turning to `CCOc1ccc(-c2nnc([C@H]3C[C@H](NC(=O)c4ccccn4)C3)n2-c2ccccc2F)nc1`, in [2], the Papp A→B at 2 h, 10 µM lay in the range of 39.5 to 40 ×10⁻⁶ cm/s. The compound also gave a CL/F in [1] of 34.8 mL/min/kg. In data set [3], the IC50 was greater than 10 µM. Further, the Activity entry in data set [4] and in [5] was “Non-Toxic” in each case. In addition, in the data set on RKO, the result was Active.
Regarding `O=C(N[C@H]1C[C@H](c2nnc(-c3ccncn3)n2-c2ccccc2Cl)C1)c1ccnc2cccnc12`, the Papp A→B at 2 h, 10 µM in [2] was 3.1 ×10⁻⁶ cm/s.
`O=C(N[C@H]1C[C@H](c2nnc(-c3ccccn3)n2-c2ccccc2F)C1)c1ccnc2cc(F)cnc12` gave an apparent clearance CL/F in data set [1] of 16.5 mL/min/kg.
In the case of `N#Cc1ccc2c(c1)[nH]c(=O)n2[C@H]1C[C@H](c2nnc(-c3ccncn3)n2-c2ccccc2Cl)C1`, the IC50 in data set [6], in data set [7], in [3] and in data set [8] was greater than 10 µM in each case.
